# US20120321609A1, “METHOD OF TREATING PSYCHOLOGICAL DISORDERS” (priority 2011, published 2012)
# System: 5-HT2AR
# Experiment: Biotinylation of cell surface FLAG-5-HT2AR in HEK 293 cells
# Format: cell-based, human
# Conditions: CRF 500 nM pretreatment 30 min
# Method: HEK 293 cells transiently expressing wild-type and truncated FLAG-5-HT2AR and HA-CRFR1 were seeded into 100 mm dishes and pre-incubated for 30 minutes in HBSS. […] Cell surface receptors were labeled on ice with biotin (1 mg/ml) for 1 hour. Following labeling, cells were washed 3 times with 10 mM glycine and then 2 times with HBSS, lysed and equal amounts of total protein were incubated with neutravidin beads for 2 hours with rotation at 4° C. Beads were then washed 3 times with lysis buffer and one time with PBS. Proteins were eluted from beads by addition of 50 ul of SDS loading buffer. Samples were resolved by SDS-PAGE, transferred to nitrocellulose membrane and subsequently immunoblotted as described above with rabbit polyclonal FLAG antibody.
# Sequence of 5-HT2AR (P28223 whole entry): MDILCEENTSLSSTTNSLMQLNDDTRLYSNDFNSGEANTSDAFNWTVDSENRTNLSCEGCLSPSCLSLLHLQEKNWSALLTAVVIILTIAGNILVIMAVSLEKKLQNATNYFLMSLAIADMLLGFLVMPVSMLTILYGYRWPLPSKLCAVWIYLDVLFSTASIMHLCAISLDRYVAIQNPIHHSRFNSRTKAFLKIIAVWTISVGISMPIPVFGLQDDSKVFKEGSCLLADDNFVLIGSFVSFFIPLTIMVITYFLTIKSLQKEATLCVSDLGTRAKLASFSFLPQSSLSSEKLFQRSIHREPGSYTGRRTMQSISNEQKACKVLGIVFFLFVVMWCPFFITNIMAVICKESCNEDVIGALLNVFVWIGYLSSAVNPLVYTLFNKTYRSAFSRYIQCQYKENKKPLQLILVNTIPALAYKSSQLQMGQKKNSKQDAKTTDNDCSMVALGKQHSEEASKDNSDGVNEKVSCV
substance,measurement,value
CRF: 41 amino acid peptide that activates the HPA axis; agonist of CRF receptors,increase in cell surface expression of the 5-HT2AR,3.7±1.8 fold
